Data from publication PMC2912373, “Low-Density Lipoprotein Receptor-Related Protein 1 (LRP1) Mediates Neuronal Aβ42 Uptake and Lysosomal Trafficking” (PLoS ONE, 2010).

Test system: N2a-pcDNA3 cells
Experiment: Binding/endocytosis of FAM-Aβ42, confocal microscopy
Assay type: cell-based, mouse
Conditions: 5 µM bound 1 h at 4°C, 37°C for 8 h
Source text: To test whether the endocytic activity of LRP1 mediates the uptake of Aβ42 and its accumulation within neurons, we analyzed the uptake of fluorescently labeled Aβ42 in control N2a cells and in N2a cells that overexpress a LRP1 minireceptor, mLRP4. This minireceptor contains the fourth ligand-binding domain of LRP1 and is capable of binding several LRP1 ligands with endocytic properties identical to the full-length LRP1 [35]. We generated stable N2a-mLRP4 and N2a-pcDNA3 cell lines and characterized them for total mLRP4 expression levels by Western blot and FACS (Fig. 1). […] To determine if mLRP4 reached the plasma membrane after synthesis, we analyzed cell surface levels of mLRP4 by FACS in non-permeabilized cells. […] To quantify the amount of internalized RAP, we performed FACS analysis of similarly treated cultures. […] Cells were then warmed to 37°C for different periods of time to allow ligand internalization, and analyzed by confocal microscopy as described in the Experimental Procedures section. […]
Figure 1 LRP1 minireceptor increases the uptake of Aβ42 in N2a-mLRP4 cells. A, cell lysates from N2a cells stably expressing LRP1 minireceptor (N2a-mLRP4) or empty pcDNA3 vector (N2a-pcDNA3) were analyzed by 7.5% SDS-PAGE and Western blotted with anti-HA or anti-LRP1 antibodies. […]

Q: With “FAM-Aβ42: FAM-Aβ42 peptide (23526) from Anaspec; amyloid-β 42 with carboxyfluorescein at the N-terminal region” as the substance, how does the “Aβ42 accumulated after 8 h of warming” value read?
A: small amount
